Measured values published in ChEMBL document CHEMBL3352338, “Development and biological evaluation of potent and selective c-KIT(D816V) inhibitors” (J Med Chem, 2014).
pIC50: −log10 of the molar value. The source made the active and inactive calls. The calls are words filed in the database; no cut-off is given here.

Key:
[1] = test system: Mast/stem cell growth factor receptor Kit (Homo sapiens), P10721 [D816V]; experiment: Inhibition of c-KIT D816V mutant (unknown origin) at 1 uM by KINOMEscanning assay relative to control; values are per cent of control
[2] = target: Cyclin-dependent kinase 19 (Homo sapiens) (UniProt Q9BWU1); experiment: Inhibition of CDK11 (unknown origin) at 1 uM by KINOMEscanning assay relative to control; values are per cent of control
[3] = target: Receptor-type tyrosine-protein kinase FLT3 (Homo sapiens) (UniProt P36888); experiment: Inhibition of FLT3 (unknown origin) at 1 uM by KINOMEscanning assay relative to control; values are per cent of control
[4] = target: High affinity nerve growth factor receptor (Homo sapiens) (UniProt P04629); experiment: Inhibition of TRKA (unknown origin) at 1 uM by KINOMEscanning assay relative to control; values are per cent of control
[5] = target: T1, Aurora kinase A (Homo sapiens) (UniProt O14965); experiment: Inhibition of AURKA (unknown origin) at 1 uM by KINOMEscanning assay relative to control; values are per cent of control
T1 sequence (whole entry): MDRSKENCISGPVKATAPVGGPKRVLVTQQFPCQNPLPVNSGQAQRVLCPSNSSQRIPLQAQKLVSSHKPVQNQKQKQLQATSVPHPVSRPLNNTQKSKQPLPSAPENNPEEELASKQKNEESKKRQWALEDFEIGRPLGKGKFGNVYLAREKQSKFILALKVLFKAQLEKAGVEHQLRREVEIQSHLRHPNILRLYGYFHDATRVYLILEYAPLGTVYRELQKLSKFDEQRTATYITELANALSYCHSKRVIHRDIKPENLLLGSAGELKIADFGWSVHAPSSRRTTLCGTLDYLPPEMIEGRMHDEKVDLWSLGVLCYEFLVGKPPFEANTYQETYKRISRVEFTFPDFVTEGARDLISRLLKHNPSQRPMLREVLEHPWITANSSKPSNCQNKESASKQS

[6] = target: Glycogen synthase kinase-3 beta (Homo sapiens) (UniProt P49841); experiment: Inhibition of GSK3beta (unknown origin) at 1 uM by KINOMEscanning assay relative to control; values are per cent of control
[7] = target: T2, Mast/stem cell growth factor receptor Kit (Homo sapiens, UniProt P10721); experiment: Inhibition of wild type c-KIT (unknown origin)
[8] = target: Cyclin-dependent kinase 4 (Homo sapiens) (UniProt P11802); experiment: Inhibition of CDK4 (unknown origin) at 1 uM by KINOMEscanning assay relative to control; values are per cent of control
[9] = target: Serine/threonine-protein kinase pim-1 (Homo sapiens) (UniProt P11309); experiment: Inhibition of PIM1 (unknown origin) at 1 uM by KINOMEscanning assay relative to control; values are per cent of control
[10] = target: Vascular endothelial growth factor receptor 2 (Homo sapiens) (UniProt P35968); experiment: Inhibition of VEGFR2 (unknown origin) at 1 uM by KINOMEscanning assay relative to control; values are per cent of control
[11] = target: Epidermal growth factor receptor (Homo sapiens) (UniProt P00533); experiment: Inhibition of EGFR (unknown origin) at 1 uM by KINOMEscanning assay relative to control; values are per cent of control
[12] = target: T2, Mast/stem cell growth factor receptor Kit; experiment: Inhibition of c-KIT (unknown origin) at 1 uM by KINOMEscanning assay relative to control; values are per cent of control
[13] = target: ALK tyrosine kinase receptor (Homo sapiens) (UniProt Q9UM73); experiment: Inhibition of ALK (unknown origin) at 1 uM by KINOMEscanning assay relative to control; values are per cent of control
[14] = target: T3, Inhibitor of nuclear factor kappa-B kinase subunit beta (Homo sapiens) (UniProt O14920); experiment: Inhibition of IKKbeta (unknown origin) at 1 uM by KINOMEscanning assay relative to control; values are per cent of control
T3 sequence (whole entry): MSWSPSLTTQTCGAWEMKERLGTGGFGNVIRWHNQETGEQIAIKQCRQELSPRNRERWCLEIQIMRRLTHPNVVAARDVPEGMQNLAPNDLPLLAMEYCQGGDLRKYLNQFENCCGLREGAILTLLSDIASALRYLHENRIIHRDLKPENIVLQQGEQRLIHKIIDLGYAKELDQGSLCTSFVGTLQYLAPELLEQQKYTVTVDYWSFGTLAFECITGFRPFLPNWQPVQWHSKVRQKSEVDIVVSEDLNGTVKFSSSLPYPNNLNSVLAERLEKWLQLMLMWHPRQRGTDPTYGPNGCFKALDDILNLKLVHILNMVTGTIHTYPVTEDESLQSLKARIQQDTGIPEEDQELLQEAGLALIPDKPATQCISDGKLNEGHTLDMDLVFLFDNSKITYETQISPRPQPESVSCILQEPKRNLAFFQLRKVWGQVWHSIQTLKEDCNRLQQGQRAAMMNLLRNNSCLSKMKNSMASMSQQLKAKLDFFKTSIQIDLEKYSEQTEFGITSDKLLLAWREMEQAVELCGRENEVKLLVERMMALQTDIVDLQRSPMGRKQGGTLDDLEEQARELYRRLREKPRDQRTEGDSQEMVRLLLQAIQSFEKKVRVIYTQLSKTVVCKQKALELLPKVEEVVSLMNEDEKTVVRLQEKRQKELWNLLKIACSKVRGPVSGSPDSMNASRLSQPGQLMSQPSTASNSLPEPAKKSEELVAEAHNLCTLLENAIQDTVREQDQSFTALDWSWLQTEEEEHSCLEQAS

[15] = target: T2, Mast/stem cell growth factor receptor Kit; conditions: 5 uM
Description: Inhibition of c-KIT in imatinib-resistant human HMC-1.2 cells assessed as suppression of Akt phosphorylation at 5 uM after 1 hr by Western immunoblotting analysis

[16] = target: Mast/stem cell growth factor receptor Kit (Homo sapiens, UniProt P10721, D816V); experiment: Inhibition of c-KIT D816V mutant (unknown origin)
[17] = test system: Tyrosine-protein kinase ABL1 (Homo sapiens), P00519 [T315I]; experiment: Inhibition of ABL T315I mutant (unknown origin) at 1 uM by KINOMEscanning assay relative to control; values are per cent of control
[18] = target: Dual specificity mitogen-activated protein kinase kinase 1 (Homo sapiens) (UniProt Q02750); experiment: Inhibition of MEK1 (unknown origin) at 1 uM by KINOMEscanning assay relative to control; values are per cent of control
Chain of Dual specificity mitogen-activated protein kinase kinase 1 (Homo sapiens) (Q02750 whole entry): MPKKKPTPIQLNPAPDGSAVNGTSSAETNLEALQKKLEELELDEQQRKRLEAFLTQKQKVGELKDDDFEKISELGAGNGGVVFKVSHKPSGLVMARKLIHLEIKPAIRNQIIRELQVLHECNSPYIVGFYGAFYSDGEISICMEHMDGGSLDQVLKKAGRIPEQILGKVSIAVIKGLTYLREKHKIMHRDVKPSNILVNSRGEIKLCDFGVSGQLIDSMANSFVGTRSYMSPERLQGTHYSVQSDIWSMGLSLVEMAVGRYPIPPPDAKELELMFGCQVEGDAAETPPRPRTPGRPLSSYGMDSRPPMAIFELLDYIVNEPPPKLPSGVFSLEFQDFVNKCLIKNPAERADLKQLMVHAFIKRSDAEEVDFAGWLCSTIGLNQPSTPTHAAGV

Chain of Serine/threonine-protein kinase pim-1 (Homo sapiens) (P11309 whole entry, looked up): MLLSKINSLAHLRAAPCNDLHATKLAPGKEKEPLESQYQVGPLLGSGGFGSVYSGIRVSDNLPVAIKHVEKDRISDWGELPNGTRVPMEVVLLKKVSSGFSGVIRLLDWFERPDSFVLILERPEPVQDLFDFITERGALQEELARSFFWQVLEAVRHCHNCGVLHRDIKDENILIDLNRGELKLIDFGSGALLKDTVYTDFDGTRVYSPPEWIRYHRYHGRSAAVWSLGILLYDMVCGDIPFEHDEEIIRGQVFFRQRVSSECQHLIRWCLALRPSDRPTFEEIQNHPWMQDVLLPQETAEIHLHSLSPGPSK
Chain of Vascular endothelial growth factor receptor 2 (Homo sapiens) (P35968 whole entry): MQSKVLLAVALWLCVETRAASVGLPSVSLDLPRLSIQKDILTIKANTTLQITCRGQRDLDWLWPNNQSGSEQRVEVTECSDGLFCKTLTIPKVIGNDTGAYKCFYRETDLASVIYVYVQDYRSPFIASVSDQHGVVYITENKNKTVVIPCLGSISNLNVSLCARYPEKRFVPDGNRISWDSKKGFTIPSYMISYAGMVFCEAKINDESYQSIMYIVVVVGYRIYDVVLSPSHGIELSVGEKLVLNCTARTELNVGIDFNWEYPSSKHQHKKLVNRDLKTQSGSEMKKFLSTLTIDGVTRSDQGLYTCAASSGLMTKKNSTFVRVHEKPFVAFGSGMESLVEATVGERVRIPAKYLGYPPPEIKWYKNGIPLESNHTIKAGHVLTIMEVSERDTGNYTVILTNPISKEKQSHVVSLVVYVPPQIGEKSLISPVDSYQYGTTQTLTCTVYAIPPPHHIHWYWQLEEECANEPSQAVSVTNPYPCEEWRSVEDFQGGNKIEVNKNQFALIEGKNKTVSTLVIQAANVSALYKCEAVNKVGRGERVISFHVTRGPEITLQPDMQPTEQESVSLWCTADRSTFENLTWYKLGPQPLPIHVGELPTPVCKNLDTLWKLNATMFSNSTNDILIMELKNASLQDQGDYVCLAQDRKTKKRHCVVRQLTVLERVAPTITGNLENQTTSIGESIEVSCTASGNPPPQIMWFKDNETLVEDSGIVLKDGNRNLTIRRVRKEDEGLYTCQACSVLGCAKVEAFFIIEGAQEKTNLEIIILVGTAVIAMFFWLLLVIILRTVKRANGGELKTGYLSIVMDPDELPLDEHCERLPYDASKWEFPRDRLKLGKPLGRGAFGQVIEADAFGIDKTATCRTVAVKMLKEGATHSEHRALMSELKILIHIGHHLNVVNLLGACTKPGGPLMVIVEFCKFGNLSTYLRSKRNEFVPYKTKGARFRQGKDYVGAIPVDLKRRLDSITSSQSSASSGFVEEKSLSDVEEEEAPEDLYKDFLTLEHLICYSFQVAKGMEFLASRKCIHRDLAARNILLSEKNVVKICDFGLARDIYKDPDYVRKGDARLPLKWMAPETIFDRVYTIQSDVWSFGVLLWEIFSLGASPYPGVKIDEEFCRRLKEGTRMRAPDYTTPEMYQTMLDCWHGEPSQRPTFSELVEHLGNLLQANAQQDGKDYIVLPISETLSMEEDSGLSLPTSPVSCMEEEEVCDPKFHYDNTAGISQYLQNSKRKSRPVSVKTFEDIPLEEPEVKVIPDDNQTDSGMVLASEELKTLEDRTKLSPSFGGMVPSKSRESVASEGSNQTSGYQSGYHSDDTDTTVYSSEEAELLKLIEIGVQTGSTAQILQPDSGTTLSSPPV
Chain of Cyclin-dependent kinase 4 (Homo sapiens) (P11802 whole entry): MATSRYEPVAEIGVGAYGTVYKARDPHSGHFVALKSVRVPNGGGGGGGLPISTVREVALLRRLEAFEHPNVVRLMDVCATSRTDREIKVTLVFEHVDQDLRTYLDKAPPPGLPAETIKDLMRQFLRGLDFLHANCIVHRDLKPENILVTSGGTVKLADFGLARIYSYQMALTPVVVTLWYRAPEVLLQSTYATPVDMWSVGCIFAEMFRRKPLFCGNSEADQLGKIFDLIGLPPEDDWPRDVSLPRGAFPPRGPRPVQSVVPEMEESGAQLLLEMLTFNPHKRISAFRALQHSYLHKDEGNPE
Chain of High affinity nerve growth factor receptor (Homo sapiens) (P04629 33-796 limits assumed): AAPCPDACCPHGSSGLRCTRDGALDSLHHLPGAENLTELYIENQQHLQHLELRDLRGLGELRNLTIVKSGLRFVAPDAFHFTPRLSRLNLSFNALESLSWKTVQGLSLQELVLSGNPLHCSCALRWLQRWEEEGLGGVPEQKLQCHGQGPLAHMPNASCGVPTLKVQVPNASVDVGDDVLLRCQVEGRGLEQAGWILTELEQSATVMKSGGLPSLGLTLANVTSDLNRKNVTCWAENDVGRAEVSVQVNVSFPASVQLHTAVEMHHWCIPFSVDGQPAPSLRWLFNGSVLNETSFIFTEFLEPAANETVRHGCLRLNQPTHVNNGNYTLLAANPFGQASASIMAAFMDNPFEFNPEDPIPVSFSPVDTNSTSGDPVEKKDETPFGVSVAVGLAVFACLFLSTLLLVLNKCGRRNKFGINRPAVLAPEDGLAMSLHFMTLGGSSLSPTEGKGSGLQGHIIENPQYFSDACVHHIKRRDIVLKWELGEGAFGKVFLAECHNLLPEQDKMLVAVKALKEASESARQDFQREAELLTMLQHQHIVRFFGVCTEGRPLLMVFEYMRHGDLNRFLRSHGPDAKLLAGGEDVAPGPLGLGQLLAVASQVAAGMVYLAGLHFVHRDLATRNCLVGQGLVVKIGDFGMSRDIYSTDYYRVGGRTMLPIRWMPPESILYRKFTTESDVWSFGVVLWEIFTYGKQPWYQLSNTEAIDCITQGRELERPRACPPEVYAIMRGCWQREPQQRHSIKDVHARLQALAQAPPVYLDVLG
Chain of ALK tyrosine kinase receptor (Homo sapiens) (Q9UM73 19-1620 limits assumed): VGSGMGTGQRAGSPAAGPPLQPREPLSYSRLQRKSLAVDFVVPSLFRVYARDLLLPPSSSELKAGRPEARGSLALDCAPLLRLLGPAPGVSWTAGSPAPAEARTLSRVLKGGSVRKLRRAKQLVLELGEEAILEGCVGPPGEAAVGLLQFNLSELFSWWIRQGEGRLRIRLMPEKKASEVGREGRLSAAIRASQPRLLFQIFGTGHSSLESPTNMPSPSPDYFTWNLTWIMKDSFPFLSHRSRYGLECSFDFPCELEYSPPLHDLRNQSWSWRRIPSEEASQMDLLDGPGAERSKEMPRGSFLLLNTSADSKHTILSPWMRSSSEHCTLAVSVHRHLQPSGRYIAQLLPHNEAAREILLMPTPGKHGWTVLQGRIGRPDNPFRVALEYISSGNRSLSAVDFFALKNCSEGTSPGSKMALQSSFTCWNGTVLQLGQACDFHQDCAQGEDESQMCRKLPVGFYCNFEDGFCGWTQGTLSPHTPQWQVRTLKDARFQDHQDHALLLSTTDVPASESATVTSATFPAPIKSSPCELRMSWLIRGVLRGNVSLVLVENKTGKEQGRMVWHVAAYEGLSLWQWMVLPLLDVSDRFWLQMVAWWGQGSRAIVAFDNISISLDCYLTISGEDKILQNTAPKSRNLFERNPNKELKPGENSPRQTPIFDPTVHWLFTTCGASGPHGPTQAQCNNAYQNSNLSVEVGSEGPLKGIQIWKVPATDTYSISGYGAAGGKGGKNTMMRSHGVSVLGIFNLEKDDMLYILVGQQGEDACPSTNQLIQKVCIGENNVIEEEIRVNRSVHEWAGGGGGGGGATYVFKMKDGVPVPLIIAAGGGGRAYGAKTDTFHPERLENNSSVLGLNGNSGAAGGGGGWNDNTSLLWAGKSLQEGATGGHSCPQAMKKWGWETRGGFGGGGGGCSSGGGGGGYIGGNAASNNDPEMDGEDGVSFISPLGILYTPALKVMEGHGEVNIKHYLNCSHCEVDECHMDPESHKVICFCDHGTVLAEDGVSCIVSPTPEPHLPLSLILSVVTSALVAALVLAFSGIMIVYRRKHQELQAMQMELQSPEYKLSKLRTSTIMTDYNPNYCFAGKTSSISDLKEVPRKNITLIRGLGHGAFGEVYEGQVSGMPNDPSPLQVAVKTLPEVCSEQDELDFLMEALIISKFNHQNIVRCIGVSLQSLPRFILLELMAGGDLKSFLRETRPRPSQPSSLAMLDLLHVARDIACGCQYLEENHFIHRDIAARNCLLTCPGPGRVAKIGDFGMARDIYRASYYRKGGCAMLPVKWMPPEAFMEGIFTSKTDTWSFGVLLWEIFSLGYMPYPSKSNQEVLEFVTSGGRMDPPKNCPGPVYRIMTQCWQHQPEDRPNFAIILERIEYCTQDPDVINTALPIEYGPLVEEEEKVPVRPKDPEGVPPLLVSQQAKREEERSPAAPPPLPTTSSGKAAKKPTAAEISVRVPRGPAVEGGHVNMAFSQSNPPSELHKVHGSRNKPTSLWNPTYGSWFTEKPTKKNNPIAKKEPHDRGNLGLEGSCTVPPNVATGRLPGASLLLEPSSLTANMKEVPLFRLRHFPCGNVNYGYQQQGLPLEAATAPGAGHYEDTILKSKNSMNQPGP

## COc1ccc(-c2cnc3[nH]cc(-c4ccc(OC)c(OC)c4)c3c2)cc1N
[1]
  residual activity: 0%
[2]
  residual activity: 79%
[3]
  residual activity: 18%
[4]
  residual activity: 11%
[5]
  residual activity: 17%
[6]
  residual activity: 87%
[7]
  pIC50: < 5.00
[8]
  residual activity: 81%
[9]
  residual activity: 71%
[10]
  residual activity: 79%
[11]
  residual activity: 43%
[12]
  residual activity: 37%
[13]
  residual activity: 51%
[14]
  residual activity: 31%
[15]
  inhibition: Active
[16]
  pIC50: 7.59
[17]
  residual activity: 54%
[18]
  residual activity: 76%

## COc1ccc(-c2cnc3[nH]cc(-c4ccc(OC)c(OC)c4)c3c2)cc1OC
[1]
  residual activity: 0%
[2]
  residual activity: 3.8%
[3]
  residual activity: 2.2%
[4]
  residual activity: 26%
[5]
  residual activity: 13%
[6]
  residual activity: 94%
[7]
  pIC50: 6.85
[8]
  residual activity: 85%
[9]
  residual activity: 68%
[10]
  residual activity: 96%
[11]
  residual activity: 70%
[12]
  residual activity: 0.8%
[13]
  residual activity: 43%
[14]
  residual activity: 12%
[15]
  inhibition: Active
[16]
  pIC50: 8.68
[17]
  residual activity: 51%
[18]
  residual activity: 74%

## COc1ccc(-c2c[nH]c3ncc(-c4cc(OC)c(OC)c(OC)c4)cc23)cc1OC
[1]
  residual activity: 0%
[2]
  residual activity: 90%
[3]
  residual activity: 1.6%
[4]
  residual activity: 46%
[5]
  residual activity: 25%
[6]
  residual activity: 64%
[7]
  pIC50: 5.56
[8]
  residual activity: 95%
[9]
  residual activity: 71%
[10]
  residual activity: 97%
[11]
  residual activity: 68%
[12]
  residual activity: 19%
[13]
  residual activity: 40%
[14]
  residual activity: 69%
[15]
  inhibition: Active
[16]
  pIC50: 8.06
[17]
  residual activity: 48%
[18]
  residual activity: 78%

## COc1ccc(-c2c[nH]c3ncc(-c4ccc(C(=O)N5CCOCC5)c(N)c4)cc23)cc1OC
[1]
  residual activity: 1.4%
[2]
  residual activity: 100%
[3]
  residual activity: 7%
[4]
  residual activity: 11%
[5]
  residual activity: 0.85%
[6]
  residual activity: 63%
[7]
  pIC50: 5.04
[8]
  residual activity: 82%
[9]
  residual activity: 27%
[10]
  residual activity: 79%
[11]
  residual activity: 73%
[12]
  residual activity: 51%
[13]
  residual activity: 76%
[14]
  residual activity: 0.75%
[16]
  pIC50: 8.07
[17]
  residual activity: 17%
[18]
  residual activity: 59%

## COc1cc(-c2c[nH]c3ncc(-c4cccc(N)c4)cc23)cc(OC)c1OC
[1]
  residual activity: 2.1%
[2]
  residual activity: 96%
[3]
  residual activity: 25%
[4]
  residual activity: 83%
[5]
  residual activity: 8.9%
[6]
  residual activity: 64%
[8]
  residual activity: 85%
[9]
  residual activity: 88%
[10]
  residual activity: 96%
[11]
  residual activity: 70%
[12]
  residual activity: 9.8%
[13]
  residual activity: 33%
[14]
  residual activity: 22%
[15]
  inhibition: Active
[16]
  pIC50: 7.01
[17]
  residual activity: 47%
[18]
  residual activity: 85%
